These results are taken from patent US4804681A, “Metal complexes having an antineoplastic action and medicaments containing these complexes” (priority 1980, dated 1989).

Series [1] concerns sarcoma 180 tumor cells. In words: Sarcoma 180 tumor model (i.p.), median survival time T/C. In kind it is in vivo, female NMRI mice. The conditions noted are these: for T/C (median survival time) / cure rate (cured animals/treated animals): single dose. The protocol:
1. Sarcoma 180 tumor model
In each case about 10^6 sarcoma 180 tumor cells in 0.2 ml of physiological saline solution are transferred intraperitoneally (I.P.) to female NMRI mice which are about 6 weeks old and weigh 18 to 20 g. The tumor is kept in passage in the same mouse strain. The tumor cells are removed from freshly killed animals immediately before transplantation. On inoculation, the animals are randomized. 6 mice are used per dosage. Cisplatin and cyclophosphamide are used as the control substances. The number of control groups (untreated animals) is chosen such that it corresponds to about the square root of the total number of groups. The substances are injected intraperitoneally, in each case 24 hours after the transplantation, as suspensions in customary solubilizing agents, such as Tween® (polyoxyethylene derivatives of sorbitan esters).
The stated dose was administered once at the start of the experiment, as described. The factor T/C given in per cent denotes the percentage increase in median survival time of the treated animals compared with the median survival time of the untreated control animals. In some cases, the cure rate, that is to say the number of cured animals in relation to the number of treated animals, is given in the Table, in parentheses after the factor T/C.
The experiment is discontinued as soon as the median survival time T/C of the treated animals has reached 300% of the median survival time of the untreated animals. In calculating the median survival time, the animals still alive at the end of the experiment are taken as being dead at the end of the experiment.

In series [2] the test system is Yoshida sarcoma cells. In words: subcutaneously transplanted Yoshida sarcoma, intravenous therapy. It is filed as in vivo, female SD rats. As for the experimental part:
In a further experiment, about 5×10^6 Yoshida sarcoma cells were subcutaneously transplanted into female SD rats on day 0. In the second week, 4 mg/kg of dichlorobis(benzoylacetonato)titanium(IV) as a Tween® 60 coprecipitate (1:20) in aqueous solution were administered intravenously twice. […] The recidives were treated intravenously twice weekly with the original dose for four weeks.

Series [3] has as its system sarcoma 180 cells. In words: subcutaneously transplanted sarcoma 180, intravenous therapy. The conditions noted are these: 4 mg/kg i.v. as Tween 60 coprecipitate (1:20), twice weekly for 4 weeks, from 2nd week. It is filed as in vivo, female mice. The protocol:
In a further experiment, about 5×10^6 sarcoma 180 cells were subcutaneously transplanted into twelve female mice on day 0. From the 2nd week after the transplantation, six animals were given intravenous therapy with 4 mg/kg of dichlorobis(benzoylacetonato)titanium(IV) as a Tween® 60 coprecipitate (1:20) in aqueous solution, twice weekly for 4 weeks.

Series [4] has as its system testicular tumors, ovarian tumors, oat-cell carcinomas. The conditions noted are these: cited from earlier work.
The subject of series [5] is ascitic Ehrlich tumors. The note with it: mice; cited from earlier work.
The mark [6] stands for this setting: 4 mg/kg i.v. as Tween 60 coprecipitate (1:20), twice in second week.

In the case of `CC(=O)[CH-]C(=O)c1ccccc1.CC(=O)[CH-]C(=O)c1ccccc1.[Cl-].[Cl-].[Ti+4]` [Dichlorobis(benzoylacetonato)titanium(IV)], the “T/C (median survival time)” value in series [1] (4 mg/kg i.p.) is listed as 118%; in series [1] (16 mg/kg i.p.), 115%; in series [1] (41 mg/kg i.p.), 291%; in series [1] (57 mg/kg i.p.), 179%; in series [1] (82 mg/kg i.p.), 300%; in series [1] (123 mg/kg i.p.) it was 212%. Besides, the “T/C (median survival time)” value amounted to 251% in series [1] (177 mg/kg i.p.) and 300% in series [1] (259 mg/kg i.p.). Besides, the “cure rate (cured animals/treated animals)” value in series [1] (4 mg/kg i.p.) is given as 0/6; in series [1] (16 mg/kg i.p.), 0/6; in series [1] (41 mg/kg i.p.), 2/6; in series [1] (57 mg/kg i.p.) it was 0/6; in series [1] (82 mg/kg i.p.), 4/6; in series [1] (123 mg/kg i.p.), 1/6. For the same molecule, the “cure rate (cured animals/treated animals)” value in series [1] (177 mg/kg i.p.) is recorded as 1/6; in series [1] (259 mg/kg i.p.) it was 5/6. For the same molecule, in series [2] (setting [6]), the “recidives after three weeks (plum-sized)” value is “two out of three animals”. The tumor regression entry in series [2] (setting [6]) was “The tumor regressed”. Besides, in series [2] (4 mg/kg i.v. as Tween 60 coprecipitate (1:20), twice in second week, three animals), the “cured animals after first treatment” value was “One animal was cured”. Also, the “cured animals after treatment of recidives” value in series [2] (original dose i.v. twice weekly for four weeks, two animals with recidives) is given as “Both animals were cured”. Moreover, the outcome of treatment in series [3] is “cured at the end of therapy”.
Regarding `CC(=O)C=C([O][Zr]([Cl])([Cl])[O]C(=CC(C)=O)c1ccccc1)c1ccccc1` [dichlorobis(benzoylacetonato)zirconium(IV)], the “T/C (median survival time)” value is 234% in series [1] (31 mg/kg i.p.); 300% in series [1] (46 mg/kg i.p.); 300% in series [1] (68 mg/kg i.p.); 300% in series [1] (97 mg/kg i.p.); 193% in series [1] (145 mg/kg i.p.); 144% in series [1] (208 mg/kg i.p.).
Turning to `CC(=O)[CH-]C(=O)c1ccccc1.CC(=O)[CH-]C(=O)c1ccccc1.[F-].[F-].[Ti+4]` [Difluorobis(benzoylacetonato)titanium(IV)], the “T/C (median survival time)” value in series [1] (4 mg/kg i.p.) was found to be 97%; in series [1] (15 mg/kg i.p.) it was 115%; in series [1] (38 mg/kg i.p.) it was 209%; in series [1] (52 mg/kg i.p.) it was 300%; in series [1] (75 mg/kg i.p.), 154%; in series [1] (113 mg/kg i.p.), 300%. The “T/C (median survival time)” value in series [1] (162 mg/kg i.p.) and in series [1] (238 mg/kg i.p.) was 300% each time. Besides, the “cure rate (cured animals/treated animals)” value is given as 0/6 in series [1] (4 mg/kg i.p.); 0/6 in series [1] (15 mg/kg i.p.); 1/6 in series [1] (38 mg/kg i.p.); 4/6 in series [1] (52 mg/kg i.p.); 0/6 in series [1] (75 mg/kg i.p.); 3/6 in series [1] (113 mg/kg i.p.). Moreover, the “cure rate (cured animals/treated animals)” value is listed as 4/6 in series [1] (162 mg/kg i.p.) and 2/6 in series [1] (238 mg/kg i.p.).
Regarding `CC(=O)C=C([O][Hf]([Cl])([Cl])[O]C(=CC(C)=O)c1ccccc1)c1ccccc1` [Dichlorobis(benzoylacetonato)hafnium(IV)], the “T/C (median survival time)” value in series [1] (114 mg/kg i.p.) was determined as 130%; in series [1] (172 mg/kg i.p.), 267%; in series [1] (246 mg/kg i.p.) it was 300%.
In the case of `N.N.[Cl][Pt][Cl]` [cisplatin, cis-diamminedichloroplatinum(II), reference compound], the “renal damage and damage to hearing” value in series [4] (after only a single therapeutic dose) is “found with considerable frequency”. For the same molecule, the nausea and retching entry in series [4] is listed as “long-lasting severe nausea”. Besides, in series [4] (testicular tumors, ovarian tumors, oat-cell carcinomas), the antitumor activity result is reported as “extremly potent antitumor agent”. For the same molecule, the “T/C (median survival time)” value in series [1] (1 mg/kg i.p.) was 112%; in series [1] (2 mg/kg i.p.), 133%; in series [1] (3 mg/kg i.p.) it was 300%; in series [1] (5 mg/kg i.p.), 300%; in series [1] (8 mg/kg i.p.), 300%; in series [1] (13 mg/kg i.p.), 300%. Also, the “T/C (median survival time)” value in series [1] (22 mg/kg i.p.) amounted to 42%. Also, the “cure rate (cured animals/treated animals)” value in series [1] (1 mg/kg i.p.) is listed as 0/6; in series [1] (2 mg/kg i.p.) it was 0/6; in series [1] (3 mg/kg i.p.), 2/6; in series [1] (5 mg/kg i.p.), 5/6; in series [1] (8 mg/kg i.p.) it was 6/6; in series [1] (13 mg/kg i.p.) it was 6/6. For the same molecule, the “cure rate (cured animals/treated animals)” value in series [1] (22 mg/kg i.p.) is recorded as 0/6. Besides, the “median survival time compared with untreated controls” value in series [1] (about 20 mg/kg) is “shorter than that of the untreated control animals”. Further, the cure of animals entry in series [1] (about 8 to 10 mg/kg) is on record as “most of the animals are cured”.
Consider titanocene dichloride, for which the “action on ascitic Ehrlich tumors” value in series [5] is recorded as “inhibiting action”.
Turning to `CC(=O)[CH-]C(=O)c1ccccc1.CC(=O)[CH-]C(=O)c1ccccc1.[Br-].[Br-].[Ti+4]` [Dibromobis(benzoylacetonato)titanium(IV)], the “T/C (median survival time)” value in series [1] (5 mg/kg i.p.) was 103%; in series [1] (20 mg/kg i.p.) it was 115%; in series [1] (50 mg/kg i.p.), 288%; in series [1] (70 mg/kg i.p.), 300%; in series [1] (100 mg/kg i.p.), 300%; in series [1] (150 mg/kg i.p.), 300%. The “T/C (median survival time)” value in series [1] (215 mg/kg i.p.) stood at 273%; in series [1] (315 mg/kg i.p.), 300%. In addition, the “cure rate (cured animals/treated animals)” value is 0/6 in series [1] (5 mg/kg i.p.); 0/6 in series [1] (20 mg/kg i.p.); 1/6 in series [1] (50 mg/kg i.p.); 3/6 in series [1] (70 mg/kg i.p.); 3/6 in series [1] (100 mg/kg i.p.); 4/6 in series [1] (150 mg/kg i.p.). For the same molecule, the “cure rate (cured animals/treated animals)” value in series [1] (215 mg/kg i.p.) is reported as 1/6; in series [1] (315 mg/kg i.p.), 5/6.
On to `[Cl-].[Cl-].[Hf+4].c1cc[cH-]c1.c1cc[cH-]c1` [hafnocene dichloride], for which the “action on ascitic Ehrlich tumors” value in series [5] was “inhibiting action”.
Take `CC(=O)C=C([O][Zr]([Br])([O]C(=CC(C)=O)c1ccccc1)[O]C(=CC(C)=O)c1ccccc1)c1ccccc1` [Bromotris(benzoylacetonato)zirconium(IV)]: the “T/C (median survival time)” value in series [1] (92 mg/kg i.p.) was determined as 300%; in series [1] (209 mg/kg i.p.) it was 297%; in series [1] (471 mg/kg i.p.), 187%.
In the case of `[Cl][Zr+2][Cl].c1cc[cH-]c1.c1cc[cH-]c1` [zirconocene dichloride], the “action on ascitic Ehrlich tumors” value in series [5] is “inhibiting action”.
On to `CC(=O)C=C([O][Zr]([Br])([Br])[O]C(=CC(C)=O)c1ccccc1)c1ccccc1` [dibromobis(benzoylacetonato)zirconium(IV)], for which the “T/C (median survival time)” value in series [1] (54 mg/kg i.p.) is recorded as 300%; in series [1] (80 mg/kg i.p.), 300%; in series [1] (126 mg/kg i.p.), 191%; in series [1] (172 mg/kg i.p.) it was 172%; in series [1] (247 mg/kg i.p.), 184%.
